Reference: US10208019B2, “GLP-1 receptor agonists and uses thereof” (Pfizer Inc., priority 2016, dated 2019)
Read-outs that look alike come from different tables or passages of the source.

Experiments:
human GLP-1R [1] = molecular target: human GLP-1R (Homo sapiens, UniProt P43220, G168S); assay: CHO GLP-1R Clone H6—Assay 1: HTRF cAMP cell-based functional agonist assay (high GLP-1R density); settings: for EC50: read-out: Assay 1 EC50, CHO GLP-1R Clone H6, cAMP HTRF, geometric mean
human GLP-1R [2] = molecular target: human GLP-1R (Homo sapiens (Human), UniProt P43220, L260F); assay: CHO GLP-1R Clone C6—Assay 2: HTRF cAMP cell-based functional agonist assay (low GLP-1R density); settings: for EC50: CHO GLP-1R Clone C6, cAMP HTRF, geometric mean; for Emax: read-out: Assay 2 Emax (%)
Sequence of human GLP-1R (Homo sapiens (Human), UniProt P43220, L260F) (P43220 24-463 L260F): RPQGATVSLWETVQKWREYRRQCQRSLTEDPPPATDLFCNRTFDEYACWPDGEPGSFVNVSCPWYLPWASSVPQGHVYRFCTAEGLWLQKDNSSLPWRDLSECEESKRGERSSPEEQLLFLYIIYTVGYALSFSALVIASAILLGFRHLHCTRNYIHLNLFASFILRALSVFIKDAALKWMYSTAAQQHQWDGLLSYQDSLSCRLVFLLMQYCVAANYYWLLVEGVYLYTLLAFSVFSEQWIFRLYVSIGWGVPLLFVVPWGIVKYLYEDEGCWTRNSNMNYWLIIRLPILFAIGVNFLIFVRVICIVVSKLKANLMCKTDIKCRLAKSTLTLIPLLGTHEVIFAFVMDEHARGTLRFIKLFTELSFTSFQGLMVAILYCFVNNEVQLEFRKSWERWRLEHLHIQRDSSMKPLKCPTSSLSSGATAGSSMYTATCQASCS
Method: GLP-1R-mediated agonist activity was determined with a cell-based functional assay utilizing an HTRF (Homogeneous Time-Resolved Fluorescence) cAMP detection kit (cAMP HI Range Assay Kit; Cis Bio cat #62AM6PEJ) that measures cAMP levels in the cell. The method is a competitive immunoassay between native cAMP produced by the cells and exogenous cAMP labeled with the dye d2. The tracer binding is visualized by a mAb anti-cAMP labeled with Cryptate. The specific signal (i.e. energy transfer) is inversely proportional to the concentration of cAMP in either a standard or an experimental sample.
The human GLP-1R coding sequence (NCBI Reference Sequence NP_002053.3, including naturally-occurring variant Leu260Phe) was subcloned into pcDNA5-FRT-TO and a clonal CHO cell line stably expressing a low receptor density was isolated using the Flp-In™ T-Rex™ System, as described by the manufacturer (ThermoFisher).
Cells were removed from cryopreservation, re-suspended in 40 mL of Dulbecco's Phosphate Buffered Saline (DPBS-Lonza Cat #17-512Q) and centrifuged at 800×g for 5 min at 22° C. The DPBS was aspirated, and the cell pellet was re-suspended in 10 mL of complete growth medium (DMEM:F12 1:1 Mixture with HEPES, L-Gln, 500 mL (DMEM/F12 Lonza Cat #12-719F), 10% heat inactivated fetal bovine serum (Gibco Cat #16140-071), 5 mL of 100× Pen-Strep (Gibco Cat #15140-122), 5 mL of 100× L-Glutamine (Gibco Cat #25030-081), 700 μg/mL Hygromycin (Invitrogen Cat #10687010) and 15 μg/mL Blasticidin (Gibco Cat #R21001). A 1 mL sample of the cell suspension in growth media was counted on a Becton Dickinson ViCell to determine cell viability and cell count per mL. The remaining cell suspension was then adjusted with growth media to deliver 1600 viable cells per well using a Matrix Combi Multidrop reagent dispenser, and the cells were dispensed into a white 384 well tissue culture treated assay plate (Corning 3570). The assay plate was then incubated for 48 h at 37° C. in a humidified environment (95% O2, 5% CO2)
Varying concentrations of each compound to be tested (in DMSO) were diluted in assay buffer [HBSS with Calcium/Magnesium (Lonza/BioWhittaker cat #10-527F)/0.1% BSA (Sigma Aldrich cat #A7409-1L)/20 mM HEPES (Lonza/BioWhittaker cat #17-737E)] containing 100 μM 3-isobutyl-1-methylxanthin (IBMX; Sigma cat #15879). The final DMSO concentration in the compound/assay buffer mixture is 1%.
After 48 h, the growth media was removed from the assay plate wells, and the cells were treated with 20 μL of the serially diluted compound in assay buffer for 30 min at 37° C. in a humidified environment (95% O2, 5% CO2). Following the 30 min incubation, 10 μL of labeled d2 cAMP and 10 μL of anti-cAMP antibody (both diluted 1:20 in cell lysis buffer; as described in the manufacturer's assay protocol) were added to each well of the assay plate. The plates were then incubated at room temperature and after 60 minutes, changes in the HTRF signal were read with an Envision 2104 multi-label plate reader using excitation of 330 nm and emissions of 615 and 665 nm. Raw data were converted to nM cAMP by interpolation from a cAMP standard curve (as described in the manufacturer's assay protocol) and the percent effect was determined relative to a saturating concentration of the full agonist GLP-1 (1 μM) included on each plate. EC50 determinations were made from agonist dose response curves analyzed with a curve fitting program using a 4-parameter logistic dose response equation.

[3] = read-out: Assay 1 Emax (%), CHO GLP-1R Clone H6, relative to saturating concentration of full agonist GLP-1 (1 μM), arithmetic mean
[4] = CHO GLP-1R Clone C6, relative to saturating concentration of full agonist GLP-1 (1 μM), arithmetic mean

Sequence of human GLP-1R (Homo sapiens, UniProt P43220, G168S) (P43220 24-463 G168S limits assumed): as the sequence (P43220 24-463 L260F) above, with G145S, F237L counted along it

EC50 (human GLP-1R [1]) [nM]	Emax (human GLP-1R [1]; [3]) [%]	EC50 (human GLP-1R [2]) [nM]	Emax (human GLP-1R [2]; [4]) [%]	Assay 1 Emax (%) (human GLP-1R [1]; CHO GLP-1R Clone H6, relative to saturating concentration of full agonist GLP-1 (1 μM), arithmetic mean)	Compound	Emax (human GLP-1R [1]; read-out: Assay 1 Emax (%)) [%]	Emax (human GLP-1R [2]) [%]
7.9	80	150	100		N#Cc1ccc(COc2cccc(C3CCN(Cc4nc5ccc(C(=O)O)nc5n4Cc4ncco4)CC3)n2)c(F)c1 [Example 2A-19, 2-[(4-{6-[(4-cyano-2-fluorobenzyl)oxy]pyridin-2-yl}piperidin-1-yl)methyl]-3-(1,3-oxazol-2-ylmethyl)-3H-imidazo[4,5-b]pyridine-5-carboxylic acid]		
0.96	80	14	95		O=C(O)c1ccc2nc(CN3CCC(c4cccc(OCc5ccc(F)cc5F)n4)CC3)n(C[C@@H]3CCO3)c2n1 [Example 2A-20, 2-[(4-{6-[(2,4-difluorobenzyl)oxy]pyridin-2-yl}piperidin-1-yl)methyl]-3-[(2S)-oxetan-2-ylmethyl]-3H-imidazo[4,5-b]pyridine-5-carboxylic acid]		
8.5	88	220	110		C[C@H]1CN(c2cccc(OCc3ccc(C#N)cc3F)n2)CCN1Cc1nc2ccc(C(=O)O)nc2n1Cc1ncco1 [Example 2A-21, 2-{[(2S)-4-{6-[(4-cyano-2-fluorobenzyl)oxy]pyridin-2-yl}-2-methylpiperazin-1-yl]methyl}-3-(1,3-oxazol-2-ylmethyl)-3H-imidazo[4,5-b]pyridine-5-carboxylic acid]		
0.5	73	22	96		O=C(O)c1ccc2nc(CN3CCC(c4cccc(OCc5ccc(Cl)cc5F)n4)CC3)n(C[C@@H]3CCO3)c2n1 [Example 2A-23, 2-[(4-{6-[(4-chloro-2-fluorobenzyl)oxy]pyridin-2-yl}piperidin-1-yl)methyl]-3-[(2S)-oxetan-2-ylmethyl]-3H-imidazo[4,5-b]pyridine-5-carboxylic acid]		
0.94	83	12	98		O=C(O)c1ccc2nc(CN3CCC(c4cccc(OCc5ccc(Cl)cc5F)n4)CC3)n(C[C@@H]3CCO3)c2c1 [Example 3A-01, 2-[(4-{6-[(4-chloro-2-fluorobenzyl)oxy]pyridin-2-yl}piperidin-1-yl)methyl]-1-[(2S)-oxetan-2-ylmethyl]-1H-benzimidazole-6-carboxylic acid]		
0.34	78	7.4	94		N#Cc1ccc(COc2cccc(N3CCN(Cc4nc5ccc(C(=O)O)cc5n4C[C@@H]4CCO4)CC3)n2)c(F)c1 [Example 5A-01, 2-[(4-{6-[(4-Cyano-2-fluorobenzyl)oxy]pyridin-2-yl}piperazin-1-yl)methyl]-1-[(2S)-oxetan-2-ylmethyl]-1H-benzimidazole-6-carboxylic acid]		
0.76	88	8.8	100		N#Cc1ccc(COc2cccc(C3CCN(Cc4nc5ccc(C(=O)O)nc5n4C[C@@H]4CCO4)CC3)n2)c(F)c1 [Example 6A-01, 2-[(4-{6-[(4-cyano-2-fluorobenzyl)oxy]pyridin-2-yl}piperidin-1-yl)methyl]-3-[(2S)-oxetan-2-ylmethyl]-3H-imidazo[4,5-b]pyridine-5-carboxylic acid]		
100	99	1100	90		COCCn1c(CN2CCC(c3cccc(OCc4ccc(C)cc4)n3)CC2)nc2ccc(C(=O)O)cc21 [Example 8A-01, Ammonium 2-((4-(6-((4-Methylbenzyl)oxy)pyridin-2-yl)piperidin-1-yl)methyl)-1-(2-methoxyethyl)-1H-benzo[d]imidazole-6-carboxylate]		
170		2100	71	78	Cn1c(CN2CCC(c3cccc(OCc4ccc(Cl)cc4)n3)CC2)nc2ccc(C(=O)O)cc21 [Example 9A-07, 2-[(4-{6-[(4-chlorobenzyl)oxy]pyridin-2-yl}piperidin-1-yl)methyl]-1-methyl-1H-benzimidazole-6-carboxylic acid]		
0.34	89	2.2	97		CCn1cncc1Cn1c(CN2CCC(c3cccc(OCc4ccc(Cl)cc4F)n3)CC2)nc2ccc(C(=O)O)cc21 [Example 10A-02, 2-[(4-{6-[(4-chloro-2-fluorobenzyl)oxy]pyridin-2-yl}piperidin-1-yl)methyl]-1-[(1-ethyl-1H-imidazol-5-yl)methyl]-1H-benzimidazole-6-carboxylic acid]		

More lines, now with the values behind:

Compound	EC50 (human GLP-1R [1]) [nM]	Emax (human GLP-1R [1]; [3]) [%]	EC50 (human GLP-1R [2]) [nM]	Emax (human GLP-1R [2]; [4]) [%]	Assay 1 Emax (%) (human GLP-1R [1]; CHO GLP-1R Clone H6, relative to saturating concentration of full agonist GLP-1 (1 μM), arithmetic mean)	Emax (human GLP-1R [1]; read-out: Assay 1 Emax (%)) [%]	Emax (human GLP-1R [2]) [%]
O=C(O)c1ccc2nc(CN3CCC(c4cccc(OCc5ccc(Cl)cc5F)n4)CC3)n(C[C@H]3CCO3)c2n1 [Example 2A-22, 2-[(4-{6-[(4-chloro-2-fluorobenzyl)oxy]pyridin-2-yl}piperidin-1-yl)methyl]-3-[(2R)-oxetan-2-ylmethyl]-3H-imidazo[4,5-b]pyridine-5-carboxylic acid]	14	72	190	83			
N#Cc1ccc(COc2cccc(C3CCN(Cc4nc5ccc(C(=O)O)cc5n4C[C@@H]4CCO4)CC3)n2)c(F)c1 [Example 4A-01, 2-[(4-{6-[(4-cyano-2-fluorobenzyl)oxy]pyridin-2-yl}piperidin-1-yl)methyl]-1-[(2S)-oxetan-2-ylmethyl]-1H-benzimidazole-6-carboxylic acid]						79	100
N#Cc1ccc(COc2cccc(C3CCN(Cc4nc5ccc(C(=O)O)cc5n4Cc4ncco4)CC3)n2)c(F)c1 [Example 7A-01, 2-[(4-{6-[(4-cyano-2-fluorobenzyl)oxy]pyridin-2-yl}piperidin-1-yl)methyl]-1-(1,3-oxazol-2-ylmethyl)-1H-benzimidazole-6-carboxylic acid]		84		86			
COCCn1c(CN2CCC(c3cccc(OCc4cc(F)c(Cl)cc4F)n3)CC2)nc2ccc(C(=O)O)cc21 [Example 8A-03, 2-((4-(6-((4-chloro-2,5-difluorobenzyl)oxy)pyridin-2-yl)piperidin-1-yl)methyl)-1-(2-methoxyethyl)-1H-benzo[d]imidazole-6-carboxylic acid]	18	84	350	77			
COCCn1c(CN2CCC(c3cccc(OCc4c(F)cc(Cl)cc4F)n3)CC2)nc2ccc(C(=O)O)cc21 [Example 8A-04, 2-((4-(6-((4-chloro-2,6-difluorobenzyl)oxy)pyridin-2-yl)piperidin-1-yl)methyl)-1-(2-methoxyethyl)-1H-benzo[d]imidazole-6-carboxylic acid]	120	79	1700	88			
Cn1c(CN2CCC(c3cccc(OCc4ccc(C#N)cc4)n3)CC2)nc2ccc(C(=O)O)cc21 [Example 9A-15, 2-[(4-{6-[(4-cyanobenzyl)oxy]pyridin-2-yl}piperidin-1-yl)methyl]-1-methyl-1H-benzimidazole-6-carboxylic acid]	180	78	3500	90			
O=C(O)c1ccc2nc(CN3CCC(c4cccc(OCc5ccc(Cl)cc5F)n4)CC3)n(Cc3cnco3)c2c1 [Example 10A-01, 2-[(4-{6-[(4-Chloro-2-fluorobenzyl)oxy]pyridin-2-yl}piperidin-1-yl)methyl]-1-(1,3-oxazol-5-ylmethyl)-1H-benzimidazole-6-carboxylic acid]	3.2	77	43	84			
